In the supplement of paper PMC10307832:

Columns and labels:
Assay in all cases: relative viability (nuclei count vs DMSO), 5 days (fraction); higher = more cells survive
IA-LM = tested on: IA-LM
Outline: (§1)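 Nuclei were stained with Hoechst during a one-step fixation (final 0.05% Triton X-100, 1% formaldehyde, 1 ug/ml Hoechst) carried out 5 days after dosing, then counted on 4× images. The cells, lung cancer lines in 1536-well plates, had been dosed by pin tool the day after seeding with one drug alone or a fixed anchor-drug dose plus five library-drug doses (not always all listed) in √10 steps. Relative viability is the nuclei count in treated wells divided by that in vehicle wells, and each value is the median of duplicate plates.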

NCI-H1623 = tested on: NCI-H1623
Outline: as §1

A549 = tested on: A549
Outline: as §1

RERF-LC-KJ = tested on: RERF-LC-KJ
Outline: as §1

NCI-H2126 = tested on: NCI-H2126
Outline: as §1

EBC-1 = tested on: EBC-1
Outline: as §1

Calu-6 = tested on: Calu-6
Outline: as §1

NCI-H1993 = tested on: NCI-H1993
Outline: as §1

NCI-H1299 = tested on: NCI-H1299
Outline: as §1

ABC-1 = tested on: ABC-1
Outline: as §1

NCI-H2085 = tested on: NCI-H2085
Outline: as §1

NCI-H1703 = tested on: NCI-H1703
Outline: as §1

EKVX = tested on: EKVX
Outline: as §1

## CC(=O)O[C@@]12CO[C@@H]1C[C@H](O)[C@@]1(C)C(=O)[C@H](O)C3=C(C)[C@@H](OC(=O)[C@H](O)[C@@H](NC(=O)OC(C)(C)C)c4ccccc4)C[C@@](O)([C@@H](OC(=O)c4ccccc4)[C@H]21)C3(C)C [Docetaxel] + COc1cc2c(Oc3ccc(NC(=O)C4(C(=O)Nc5ccc(F)cc5)CC4)cc3F)ccnc2cc1OCCCN1CCOCC1 [Foretinib] (partner 0.25 µM)
IA-LM; first compound 0.0002 µM
  relative viability: 1.05
IA-LM; first compound 0.000632 µM
  relative viability: 0.386
IA-LM; first compound 0.002 µM
  relative viability: 0.0546
IA-LM; first compound 0.006325 µM
  relative viability: 0.0457
IA-LM; first compound 0.02 µM
  relative viability: 0.0491
NCI-H1623; first compound 0.0002 µM
  relative viability: 0.869
NCI-H1623; first compound 0.000632 µM
  relative viability: 0.834
NCI-H1623; first compound 0.002 µM
  relative viability: 0.584
NCI-H1623; first compound 0.006325 µM
  relative viability: 0.427
NCI-H1623; first compound 0.02 µM
  relative viability: 0.284
A549; first compound 0.0002 µM
  relative viability: 0.957
A549; first compound 0.000632 µM
  relative viability: 0.795
A549; first compound 0.002 µM
  relative viability: 0.0591
A549; first compound 0.006325 µM
  relative viability: 0.0413
A549; first compound 0.02 µM
  relative viability: 0.0241
RERF-LC-KJ; first compound 0.0002 µM
  relative viability: 0.882
RERF-LC-KJ; first compound 0.000632 µM
  relative viability: 0.898
RERF-LC-KJ; first compound 0.002 µM
  relative viability: 0.402
RERF-LC-KJ; first compound 0.006325 µM
  relative viability: 0.2
RERF-LC-KJ; first compound 0.02 µM
  relative viability: 0.203
NCI-H2126; first compound 0.0002 µM
  relative viability: 1.08
NCI-H2126; first compound 0.000632 µM
  relative viability: 1.14
NCI-H2126; first compound 0.002 µM
  relative viability: 0.588
NCI-H2126; first compound 0.006325 µM
  relative viability: 0.456
NCI-H2126; first compound 0.02 µM
  relative viability: 0.228
EBC-1; first compound 0.0002 µM
  relative viability: 0.0936
EBC-1; first compound 0.000632 µM
  relative viability: 0.0902
EBC-1; first compound 0.002 µM
  relative viability: 0.0988
EBC-1; first compound 0.006325 µM
  relative viability: 0.0924
EBC-1; first compound 0.02 µM
  relative viability: 0.09
Calu-6; first compound 0.0002 µM
  relative viability: 0.897
Calu-6; first compound 0.000632 µM
  relative viability: 0.627
Calu-6; first compound 0.002 µM
  relative viability: 0.165
Calu-6; first compound 0.006325 µM
  relative viability: 0.081
Calu-6; first compound 0.02 µM
  relative viability: 0.0747
NCI-H1993; first compound 0.0002 µM
  relative viability: 0.78
NCI-H1993; first compound 0.000632 µM
  relative viability: 0.803
NCI-H1993; first compound 0.002 µM
  relative viability: 0.659
NCI-H1993; first compound 0.006325 µM
  relative viability: 0.671
NCI-H1993; first compound 0.02 µM
  relative viability: 0.51
NCI-H1299; first compound 0.0002 µM
  relative viability: 1.1
NCI-H1299; first compound 0.000632 µM
  relative viability: 1.14
NCI-H1299; first compound 0.002 µM
  relative viability: 1
NCI-H1299; first compound 0.006325 µM
  relative viability: 0.62
NCI-H1299; first compound 0.02 µM
  relative viability: 0.295
ABC-1; first compound 0.0002 µM
  relative viability: 1.16
ABC-1; first compound 0.000632 µM
  relative viability: 1.18
ABC-1; first compound 0.002 µM
  relative viability: 0.333
ABC-1; first compound 0.006325 µM
  relative viability: 0.351
ABC-1; first compound 0.02 µM
  relative viability: 0.216
NCI-H2085; first compound 0.0002 µM
  relative viability: 0.852
NCI-H2085; first compound 0.000632 µM
  relative viability: 0.965
NCI-H2085; first compound 0.002 µM
  relative viability: 0.568
NCI-H2085; first compound 0.006325 µM
  relative viability: 0.34
NCI-H2085; first compound 0.02 µM
  relative viability: 0.414
NCI-H1703; first compound 0.000632 µM
  relative viability: 0.351
NCI-H1703; first compound 0.002 µM
  relative viability: 0.341
NCI-H1703; first compound 0.006325 µM
  relative viability: 0.179
NCI-H1703; first compound 0.02 µM
  relative viability: 0.154
EKVX; first compound 0.0002 µM
  relative viability: 1.07
EKVX; first compound 0.000632 µM
  relative viability: 0.887
EKVX; first compound 0.002 µM
  relative viability: 0.411
EKVX; first compound 0.006325 µM
  relative viability: 0.234
EKVX; first compound 0.02 µM
  relative viability: 0.13
